Test results reported in PubChem BioAssay AID1259407 (Chemical Carcinogenesis Research Information System (CCRIS), 2018).
The source made the active and inactive calls. The rule behind the calls is not given here.

Test system: CCRIS mutagenicity, Ames/micronucleus/aberration tests
Assay: CCRIS mutagenicity studies
[1] = Test System: AMES SALMONELLA TYPHIMURIUM, Strain/Indicator: TA98, Metabolic Activation: NONE, Method: PREINCUBATION
[2] = Test System: AMES SALMONELLA TYPHIMURIUM, Strain/Indicator: TA97, Metabolic Activation: NONE, Method: PREINCUBATION
[3] = Test System: AMES SALMONELLA TYPHIMURIUM, Strain/Indicator: TA100, Metabolic Activation: NONE, Method: PREINCUBATION

Oc1ccc(Cl)cc1
mutagenic call (Test System: AMES SALMONELLA TYPHIMURIUM, Strain/Indicator: TA97, Metabolic Activation: NONE, Method: STANDARD PLATE): inactive; negative | mutagenic call (Test System: AMES SALMONELLA TYPHIMURIUM, Strain/Indicator: TA97, Metabolic Activation: RAT, LIVER, S-9, AROCLOR 1254, Method: STANDARD PLATE): active; positive | mutagenic call (Test System: AMES SALMONELLA TYPHIMURIUM, Strain/Indicator: TA98, Metabolic Activation: NONE, Method: STANDARD PLATE): inactive; negative | mutagenic call (Test System: AMES SALMONELLA TYPHIMURIUM, Strain/Indicator: TA98, Metabolic Activation: RAT, LIVER, S-9, AROCLOR 1254, Method: STANDARD PLATE): active; positive | mutagenic call (Test System: AMES SALMONELLA TYPHIMURIUM, Strain/Indicator: TA98, Metabolic Activation: S-9, Method: STANDARD PLATE): active; positive | mutagenic call (Test System: AMES SALMONELLA TYPHIMURIUM, Strain/Indicator: TA100, Metabolic Activation: NONE, Method: STANDARD PLATE): inactive; negative | mutagenic call (Test System: AMES SALMONELLA TYPHIMURIUM, Strain/Indicator: TA100, Metabolic Activation: RAT, LIVER, S-9, AROCLOR 1254, Method: STANDARD PLATE): active; positive | mutagenic call (Test System: AMES SALMONELLA TYPHIMURIUM, Strain/Indicator: TA100, Metabolic Activation: S-9, Method: STANDARD PLATE): inactive; negative | mutagenic call (Test System: AMES SALMONELLA TYPHIMURIUM, Strain/Indicator: TA104, Metabolic Activation: NONE, Method: STANDARD PLATE): inactive; negative | mutagenic call (Test System: AMES SALMONELLA TYPHIMURIUM, Strain/Indicator: TA104, Metabolic Activation: RAT, LIVER, S-9, AROCLOR 1254, Method: STANDARD PLATE): inactive; negative

II
mutagenic call (End Point: IN VITRO CHROMOSOMAL ABERRATIONS, Test System: SYRIAN HAMSTER EMBRYO (SHE) CELLS, Metabolic Activation: NONE): active; positive (structural changes)

O=[N+]([O-])c1cccc2nc3c([N+](=O)[O-])cccc3nc12
mutagenic call (Test System: AMES SALMONELLA TYPHIMURIUM, Strain/Indicator: TA98(NR), Metabolic Activation: NONE, Method: PREINCUBATION): inactive; negative | mutagenic call [1]: inactive; negative

CC(=O)Nc1ccc(/C=N/n2nnc3c([nH]c4ccccc43)c2=O)cc1
mutagenic call [2]: active; positive | mutagenic call (Test System: AMES SALMONELLA TYPHIMURIUM, Strain/Indicator: TA97, Metabolic Activation: RAT, LIVER, S-9, AROCLOR 1254 (10%), Method: PREINCUBATION): active; positive | mutagenic call [1]: active; positive | mutagenic call (Test System: AMES SALMONELLA TYPHIMURIUM, Strain/Indicator: TA98, Metabolic Activation: RAT, LIVER, S-9, AROCLOR 1254 (10%), Method: PREINCUBATION): active; positive | mutagenic call [3]: active; positive | mutagenic call (Test System: AMES SALMONELLA TYPHIMURIUM, Strain/Indicator: TA100, Metabolic Activation: RAT, LIVER, S-9, AROCLOR 1254 (10%), Method: PREINCUBATION): active; positive | mutagenic call (Test System: AMES SALMONELLA TYPHIMURIUM, Strain/Indicator: TA102, Metabolic Activation: NONE, Method: PREINCUBATION): inactive; negative | mutagenic call (Test System: AMES SALMONELLA TYPHIMURIUM, Strain/Indicator: TA102, Metabolic Activation: RAT, LIVER, S-9, AROCLOR 1254 (10%), Method: PREINCUBATION): inactive; negative

CCCCCCCCCCCCCCCCN
mutagenic call (Test System: AMES SALMONELLA TYPHIMURIUM, Strain/Indicator: TA97, Metabolic Activation: HAMSTER, LIVER, S-9, AROCLOR 1254 (10 OR 30%), Method: PREINCUBATION): inactive; negative | mutagenic call [2]: inactive; negative | mutagenic call (Test System: AMES SALMONELLA TYPHIMURIUM, Strain/Indicator: TA97, Metabolic Activation: RAT, LIVER, S-9, AROCLOR 1254 (10 OR 30%), Method: PREINCUBATION): inactive; negative | mutagenic call (Test System: AMES SALMONELLA TYPHIMURIUM, Strain/Indicator: TA98, Metabolic Activation: HAMSTER, LIVER, S-9, AROCLOR 1254 (10 OR 30%), Method: PREINCUBATION): inactive; negative | mutagenic call [1]: inactive; negative | mutagenic call (Test System: AMES SALMONELLA TYPHIMURIUM, Strain/Indicator: TA98, Metabolic Activation: RAT, LIVER, S-9, AROCLOR 1254 (10 OR 30%), Method: PREINCUBATION): inactive; negative | mutagenic call (Test System: AMES SALMONELLA TYPHIMURIUM, Strain/Indicator: TA100, Metabolic Activation: HAMSTER, LIVER, S-9, AROCLOR 1254 (10 OR 30%), Method: PREINCUBATION): inactive; negative | mutagenic call [3]: inactive; negative | mutagenic call (Test System: AMES SALMONELLA TYPHIMURIUM, Strain/Indicator: TA100, Metabolic Activation: RAT, LIVER, S-9, AROCLOR 1254 (10 OR 30%), Method: PREINCUBATION): inactive; negative | mutagenic call (Test System: AMES SALMONELLA TYPHIMURIUM, Strain/Indicator: TA1535, Metabolic Activation: HAMSTER, LIVER, S-9, AROCLOR 1254 (10 OR 30%), Method: PREINCUBATION): inactive; negative | mutagenic call (Test System: AMES SALMONELLA TYPHIMURIUM, Strain/Indicator: TA1535, Metabolic Activation: NONE, Method: PREINCUBATION): inactive; negative | mutagenic call (Test System: AMES SALMONELLA TYPHIMURIUM, Strain/Indicator: TA1535, Metabolic Activation: RAT, LIVER, S-9, AROCLOR 1254 (10 OR 30%), Method: PREINCUBATION): inactive; negative
